Our source for the Kd values is PMC5379069, “A Pseudomonas T6SS effector recruits PQS-containing outer membrane vesicles for iron acquisition” (Nature Communications, 2017).

In assay [1] the target is T1, TseF (PA2374) (Pseudomonas aeruginosa, UniProt Q9I1A5). Description: ITC; also fat western blot. Format: binding.
Assay [2] addresses T1, TseF (PA2374). The assay can be described thus: ITC; also immobilized-PQS pull-down and fat western blot; Kd […] with Fe3+. The class given is binding. In general terms: In ITC the heat of successive injections is recorded.

T1 sequence (Q9I1A5 entry or part of it): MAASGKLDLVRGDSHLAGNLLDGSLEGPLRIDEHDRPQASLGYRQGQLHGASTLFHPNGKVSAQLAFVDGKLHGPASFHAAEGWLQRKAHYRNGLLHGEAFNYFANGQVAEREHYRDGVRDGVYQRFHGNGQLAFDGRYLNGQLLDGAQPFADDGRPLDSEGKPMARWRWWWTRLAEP

The term Kd denotes the constant that tells how readily two partners part at equilibrium. On TseF (PA2374) [1], `CCCCCCCc1cc(O)c2ccccc2n1` [HHQ, 4-hydroxy-2-heptylquinoline] displayed a dissociation constant Kd of 25.7 µM.

`CCCCCCCc1[nH]c2ccccc2c(=O)c1O` [PQS, 2-heptyl-3-hydroxy-4-quinolone]: the Kd on TseF (PA2374) [2] was 0.33 µM.
